Converted amounts (≈) assume the structure as drawn. Structures can show the parent of a compound that is named as a salt. Where two headings read alike, the source gives them in different places.
How the values were obtained:
Format in all cases: cell-based
[1] = test system: Staphylococcus epidermidis IAM-1296; experiment: Antibacterial activity (MIC), S. epidermidis IAM-1296; conditions: Staphylococcus epidermidis, IAM1296, Staphylococcus epidermidis IAM-1296, Gram +; read-out: Minimum inhibitory concentration (MIC)
Protocol: (§1) The compounds of the present invention (A, C, D, E, F, G, H, I, J, L, O and P) and the known compound (X) as reference were dissolved in 0.1 N aqueous sodium hydroxide to prepare a solution of 5000 μg/ml in concentration. The compounds of the present invention (B, K, M and N) and the known compound (Y) were dissolved in sterilized distilled water to prepare a solution of 5000 μg/ml in concentration. Each solution was diluted with sterilized distilled water to prepare a standard solution with a concentration of each test compound: 1000 μg/ml. The test was carried out by a method as appointed by Japan Society of Chemotherapy [cf. Chemotherapy, 29, 76-79 (1981)(TOKYO)].

[2] = test system: Klebsiella pneumoniae PCI-602; experiment: Antibacterial activity (MIC), Klebsiella pneumoniae PCI-602; conditions: PCI602; Klebsiella pneumoniae PCI-602, Gram -; read-out: Minimum inhibitory concentration (MIC)
Protocol: as §1

[3] = test system: Streptococcus faecalis IID 682; experiment: Antibacterial activity (MIC), Streptococcus faecalis IID 682; conditions: Enterococcus faecalis
Protocol: as §1

[4] = test system: Escherichia coli NIHJ JC-2; experiment: Antibacterial activity (MIC), E. coli NIHJ JC-2; conditions: NIHJJC2; Escherichia coli NIHJ JC-2, Gram -; read-out: Minimum inhibitory concentration (MIC)
Protocol: as §1

[5] = test system: Acinetobacter calcoaceticus AC 54; experiment: Antibacterial activity (MIC), Acinetobacter calcoaceticus AC 54; conditions: AC54; Acinetobacter calcoaceticus AC 54, Gram -; read-out: Minimum inhibitory concentration (MIC)
Protocol: as §1

[6] = test system: Enterobacter aerogenes ATCC 13048; experiment: Antibacterial activity (MIC), Enterobacter aerogenes ATCC 13048; conditions: Klebsiella aerogenes, ATCC13048; Enterobacter aerogenes ATCC 13048, Gram -; read-out: Minimum inhibitory concentration (MIC)
Protocol: as §1

[7] = test system: Salmonella typhimurium IID 971; experiment: Antibacterial activity (MIC), Salmonella typhimurium IID 971; conditions: Salmonella enterica; Salmonella typhimurium IID 971, Gram -; read-out: Minimum inhibitory concentration (MIC)
Protocol: as §1

[8] = test system: Morganella morganii IFO 3848; experiment: Antibacterial activity (MIC), Morganella morganii IFO 3848; conditions: Morganella morganii, IFO3848, Morganella morganii IFO 3848, Gram -; read-out: Minimum inhibitory concentration (MIC)
Protocol: as §1

[9] = test system: Pseudomonas aeruginosa E-2; experiment: Antibacterial activity (MIC), P. aeruginosa E-2; conditions: E2; Pseudomonas aeruginosa E-2, Gram -; read-out: Minimum inhibitory concentration (MIC)
Protocol: as §1

[10] = test system: Staphylococcus aureus IID 803; experiment: Antibacterial activity (MIC), S. aureus IID 803; conditions: IID803; Staphylococcus aureus IID 803, Gram +; read-out: Minimum inhibitory concentration (MIC)
Protocol: as §1

[11] = test system: Proteus mirabilis IFO 3849; experiment: Antibacterial activity (MIC), Proteus mirabilis IFO 3849; conditions: IFO3849; Proteus mirabilis IFO 3849, Gram -; read-out: Minimum inhibitory concentration (MIC)
Protocol: as §1

[12] = test system: Micrococcus luteus ATCC 9341; experiment: Antibacterial activity (MIC), Micrococcus luteus ATCC 9341; conditions: ATCC9341; Micrococcus luteus ATCC 9341, Gram +; read-out: Minimum inhibitory concentration (MIC)
Protocol: as §1

[13] = test system: Serratia marcescens IAM 1184; experiment: Antibacterial activity (MIC), Serratia marcescens IAM 1184; conditions: Serratia marcescens, IAM1184, Serratia marcescens IAM 1184, Gram -; read-out: Minimum inhibitory concentration (MIC)
Protocol: as §1

[14] = test system: Shigella sonnei EW-33; experiment: Antibacterial activity (MIC), Shigella sonnei EW-33; conditions: Shigella sonnei, EW33, Shigella sonnei EW-33, Gram -; read-out: Minimum inhibitory concentration (MIC)
Protocol: as §1

[15] = test system: Escherichia coli KC-14; experiment: Antibacterial activity (MIC), E. coli KC-14; conditions: KC14; Escherichia coli KC-14, Gram -; read-out: Minimum inhibitory concentration (MIC)
Protocol: as §1

[16] = test system: Pseudomonas aeruginosa NCTC 10490; experiment: Antibacterial activity (MIC), P. aeruginosa NCTC 10490; conditions: Pseudomonas aeruginosa, NCTC10490, Pseudomonas aeruginosa NCTC 10490, Gram -; read-out: Minimum inhibitory concentration (MIC)
Protocol: as §1

[17] = test system: Staphylococcus aureus FDA 209P JC-1; experiment: Antibacterial activity (MIC), S. aureus FDA 209P JC-1; conditions: FDA209P; Staphylococcus aureus FDA 209P JC-1, Gram +; read-out: Minimum inhibitory concentration (MIC)
Protocol: as §1

[18] = test system: Pseudomonas aeruginosa IFO 3445; experiment: Antibacterial activity (MIC), P. aeruginosa IFO 3445; conditions: Pseudomonas aeruginosa, IFO3445, Pseudomonas aeruginosa IFO 3445, Gram -; read-out: Minimum inhibitory concentration (MIC)
Protocol: as §1

[19] = test system: Enterobacter cloacae 963; experiment: Antibacterial activity (MIC), Enterobacter cloacae 963; conditions: Enterobacter cloacae, 963, Enterobacter cloacae 963, Gram -; read-out: Minimum inhibitory concentration (MIC)
Protocol: as §1

[20] = test system: Proteus vulgaris OX-19; experiment: Antibacterial activity (MIC), Proteus vulgaris OX-19; conditions: OX19; Proteus vulgaris OX-19, Gram -; read-out: Minimum inhibitory concentration (MIC)
Protocol: as §1

[21] = test system: Citrobacter freundii NIHJ 10018-68; experiment: Antibacterial activity (MIC), Citrobacter freundii NIHJ 10018-68; conditions: Citrobacter freundii, NIHJ10018, Citrobacter freundii NIHJ 10018-68, Gram -; read-out: Minimum inhibitory concentration (MIC)
Protocol: as §1

[22] = test system: Bacillus subtilis ATCC 6633; experiment: Antibacterial activity (MIC), Bacillus subtilis ATCC 6633; conditions: Bacillus subtilis, ATCC6633, Bacillus subtilis ATCC 6633, Gram +; read-out: Minimum inhibitory concentration (MIC)
Protocol: as §1

[23] = IID682, Streptococcus faecalis IID 682, Gram +, read-out: Minimum inhibitory concentration (MIC)

SMILES | MIC [1] | MIC [2] | MIC [4] | MIC [5] | MIC [6] | MIC [7] | MIC [8] | MIC [9] | MIC [10] | MIC [11] | MIC [12] | MIC [13] | MIC [14] | MIC [15] | MIC [16] | MIC [17] | MIC [18] | MIC [19] | MIC [20] | MIC [21] | further results
CNCC1CCN(c2c(F)cc3c(=O)c(C(=O)O)c4scc5n4c3c2N(C)C5)C1 (stereo not drawn) [Compound (N), 9,1-(Methylimino)methano-7-fluoro-8-(3-methylaminomethyl-1-pyrrolidinyl)-5-oxo-5H-thiazolo[3,2-a]quinoline-4-carboxylic acid hydrochloride] | 0.05 µg/mL | 0.0125 µg/mL | 0.1 µg/mL | 0.05 µg/mL | 0.2 µg/mL | 0.1 µg/mL | 0.2 µg/mL | 0.78 µg/mL | 0.0125 µg/mL | 0.39 µg/mL | 0.2 µg/mL | 0.78 µg/mL | 0.05 µg/mL | 0.05 µg/mL | 0.39 µg/mL | 0.025 µg/mL | 0.78 µg/mL | 0.1 µg/mL | 0.05 µg/mL | 0.78 µg/mL | MIC [3, 23]: 0.05 µg/mL; MIC [22]: 0.025 µg/mL
CCNCC1CCN(c2c(F)cc3c(=O)c(C(=O)O)c4scc5n4c3c2N(C)C5)C1 (stereo not drawn) [Compound (M), 9,1-(Methylimino)methano-7-fluoro-8-(3-ethylaminomethyl-1-pyrrolidinyl)-5-oxo-5H-thiazolo[3,2-a]quinoline-4-carboxylic acid hydrochloride] | 0.05 µg/mL | 0.006 µg/mL | 0.1 µg/mL | 0.05 µg/mL | 0.1 µg/mL | 0.1 µg/mL | 0.2 µg/mL | 1.56 µg/mL | 0.0125 µg/mL | 0.39 µg/mL | 0.2 µg/mL | 0.78 µg/mL | 0.05 µg/mL | 0.1 µg/mL | 0.39 µg/mL | 0.025 µg/mL | 1.56 µg/mL | 0.2 µg/mL | 0.05 µg/mL | 0.78 µg/mL | MIC [3, 23]: 0.05 µg/mL; MIC [22]: 0.0125 µg/mL
CN1Cc2csc3c(C(=O)O)c(=O)c4cc(F)c(N5CCCC5)c1c4n23 [Compound (F), 9,1-(Methylimino)methano-7-fluoro-8-(1-pyrrolidinyl)-5-oxo-5H-thiazolo[3,2-a]quinoline-4-carboxylic acid] | 0.025 µg/mL (≈ 0.067 µM) | 0.006 µg/mL (≈ 0.0161 µM) | 0.2 µg/mL (≈ 0.536 µM) | 0.006 µg/mL (≈ 0.0161 µM) | 0.39 µg/mL (≈ 1.04 µM) | 0.2 µg/mL (≈ 0.536 µM) | 0.39 µg/mL (≈ 1.04 µM) | 0.39 µg/mL (≈ 1.04 µM) | 0.0125 µg/mL (≈ 0.0335 µM) | 0.39 µg/mL (≈ 1.04 µM) | 0.39 µg/mL (≈ 1.04 µM) | 0.78 µg/mL (≈ 2.09 µM) | 0.1 µg/mL (≈ 0.268 µM) | 0.2 µg/mL (≈ 0.536 µM) | 0.39 µg/mL (≈ 1.04 µM) | 0.0125 µg/mL (≈ 0.0335 µM) | 0.78 µg/mL (≈ 2.09 µM) | 0.39 µg/mL (≈ 1.04 µM) | 0.025 µg/mL (≈ 0.067 µM) | 1.56 µg/mL (≈ 4.18 µM) | MIC ([3]; IID682, read-out: Minimum inhibitory concentration (MIC)): 0.1 µg/mL (≈ 0.268 µM); MIC [22]: 0.006 µg/mL (≈ 0.0161 µM)

Reference: patent US4971967A, “Quinolinecarboxylic acid derivatives, antibacterial compositions and use” (Kanebo Ltd, priority 1989, dated 1990)
